In ChEMBL document CHEMBL1139487, “Discovery of corticotropin releasing factor 2 receptor selective sauvagine analogues for treatment of skeletal muscle atrophy” (J Med Chem, 2005):

How the values were obtained:
Mus musculus [1] = experiment: In vivo percentage inhibition against casting induced tibialis anterior mass loss in mouse at a dosage of 300 ug/kg/day; assay type: functional; settings: read-out: Inhibition
[2] = target: Corticotropin-releasing factor receptor 2 (Mus musculus) (UniProt Q60748); experiment: In vitro agonistic activity against mouse corticotropin releasing factor 2 receptor; assay type: functional
Sequence of Corticotropin-releasing factor receptor 2 (Mus musculus) (Q60748 whole entry): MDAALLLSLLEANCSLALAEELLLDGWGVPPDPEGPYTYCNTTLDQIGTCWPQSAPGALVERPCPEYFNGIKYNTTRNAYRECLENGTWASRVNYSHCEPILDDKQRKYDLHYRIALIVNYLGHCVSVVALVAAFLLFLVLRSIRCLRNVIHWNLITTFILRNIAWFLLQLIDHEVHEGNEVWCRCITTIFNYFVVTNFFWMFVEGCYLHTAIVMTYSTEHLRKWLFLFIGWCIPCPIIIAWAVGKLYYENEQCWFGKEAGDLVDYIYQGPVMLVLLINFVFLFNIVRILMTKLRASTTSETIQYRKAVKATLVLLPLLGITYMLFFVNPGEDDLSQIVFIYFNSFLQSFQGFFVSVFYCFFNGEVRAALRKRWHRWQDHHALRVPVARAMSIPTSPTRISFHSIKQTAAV

[3] = target: T1, Corticotropin-releasing factor receptor 1 (Mus musculus) (UniProt P35347); experiment: In vitro agonistic activity against mouse corticotropin releasing factor 1 receptor; assay type: functional
T1 sequence (whole entry): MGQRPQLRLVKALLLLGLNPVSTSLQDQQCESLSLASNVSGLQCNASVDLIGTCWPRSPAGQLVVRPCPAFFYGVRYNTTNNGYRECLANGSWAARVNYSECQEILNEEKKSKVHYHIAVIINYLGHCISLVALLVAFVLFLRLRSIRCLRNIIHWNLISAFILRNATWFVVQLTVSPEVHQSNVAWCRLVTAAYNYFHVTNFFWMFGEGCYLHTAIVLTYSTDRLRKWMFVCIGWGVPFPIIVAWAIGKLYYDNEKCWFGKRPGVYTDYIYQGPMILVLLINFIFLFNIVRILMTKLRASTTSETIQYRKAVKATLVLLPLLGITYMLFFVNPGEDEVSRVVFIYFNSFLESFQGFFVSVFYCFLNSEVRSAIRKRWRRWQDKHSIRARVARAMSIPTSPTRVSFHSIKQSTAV

[4] = target: T2, Corticotropin-releasing factor receptor 1 (Mus musculus, UniProt P35347); experiment: In vitro effective concentration for mouse corticotropin releasing factor 1 receptor
T2 sequence (P35347 whole entry): T1 sequence (whole entry)

[5] = target: Corticotropin-releasing factor receptor 2 (Mus musculus, UniProt Q60748); experiment: In vitro effective concentration for mouse corticotropin releasing factor 2 receptor
Sequence of Corticotropin-releasing factor receptor 2 (Q60748 whole entry): as the sequence (Q60748 whole entry) above

Mus musculus [6] = experiment: In vivo percentage inhibition against casting induced tibialis anterior mass loss in mouse at a dosage of 100 ug/kg/day; assay type: functional
Mus musculus [7] = experiment: In vivo percentage inhibition against casting induced tibialis anterior mass loss in mouse at a dosage of 30 ug/kg/day; assay type: functional
Mus musculus [8] = species: Mus musculus; experiment: Selectivity ratio of EC50s for mouse corticotropin releasing factor receptors 1 and 2

`CC[C@H](C)[C@H](NC(=O)[C@@H](NC(=O)[C@H](CC(=O)O)NC(=O)[C@H](CC(C)C)NC(=O)[C@H](CC(C)C)NC(=O)[C@H](CC(C)C)NC(=O)[C@H](CCCN=C(N)N)NC(=O)[C@H](CC(N)=O)NC(=O)[C@H](CC(N)=O)NC(=O)[C@H](C)NC(=O)[C@H](C)NC(=O)[C@H](CCC(N)=O)NC(=O)[C@H](CCC(N)=O)NC(=O)[C@H](CCCCN)NC(=O)[C@H](CCC(=O)O)NC(=O)[C@H](CCCCN)NC(=O)[C@H](CCC(=O)O)NC(=O)[C@H](CCC(N)=O)NC(=O)[C@H](CCCCN)NC(=O)[C@H](CCC(=O)O)NC(=O)[C@@H](NC(=O)[C@H](CCC(=O)O)NC(=O)[C@@H](NC(=O)[C@H](CCSC)NC(=O)[C@H](CCCCN)NC(=O)[C@H](CCCN=C(N)N)NC(=O)[C@H](CC(C)C)NC(=O)[C@H](CC(C)C)NC(=O)[C@H](Cc1ccc(O)cc1)NC(=O)[C@@H](NC(=O)[C@@H]1CCCN1C(=O)[C@H](CC(C)C)NC(=O)[C@H](CC(=O)O)NC(=O)[C@@H](NC(=O)[C@H](CO)NC(=O)[C@@H](NC(=O)[C@@H]1CCCN1C(=O)[C@@H]1CCCN1C(=O)CNC(=O)[C@@H]1CCC(=O)N1)[C@@H](C)CC)[C@@H](C)CC)[C@@H](C)O)[C@@H](C)CC)[C@@H](C)CC)[C@@H](C)O)C(=O)O` was tested, and the inhibition in vivo at 0.3 mg/kg/day (Mus musculus [1]) was 59%, the Emax [2] was 82% and the Emax [3] was 48%. The EC50 [4] was > 1000 nM, the EC50 [5] was 18.2 nM and the inhibition in vivo at 0.1 mg/kg/day (Mus musculus [6]) was 25%. For the same molecule, the inhibition in vivo at 0.03 mg/kg/day (Mus musculus [7]) was 3% and the Selectivity (Mus musculus [8]) was > 55.
